Measured values published in publication PMC12508063, “Chloroindazole based estrogen receptor β ligands with favorable pharmacokinetics promote functional remyelination and visual recovery” (Scientific Reports, 2025).

Legend:
[1] = Oral PK of K102 at 40 mg/kg in female dogs; assay type: in vivo, beagle dog; details: female dog, PO 40 mg/kg, mean
[2] = test system: Human iPSC-derived OPCs (Tempo's iOligo); assay: Differentiation of human iPSC-derived OPCs (Tempo iOligo), MBP; assay type: cell-based; details: human OLs, 10 nM, 18 days
Excerpt: Mouse and Human primary cell cultures: Primary OPC/OL culture were isolated from the cortices of postnatal day 0–1 C57BL/6J mice of both sexes, using established protocols[11],[20],[21]. Mouse OPC and Neuronal Co-cultures: Primary neuronal cultures were established in Neurobasal medium with B27 and plated on poly-L-lysine-coated coverslips. After 12 days, OPCs were isolated, counted, and added to neuronal cultures and media was replaced with neuronal and proliferation media for 3 days, then switched to maturation media that maintained both neurons and OLs. Human iPSC-derived OPCs (Tempo’s iOligo™) were expanded, cryopreserved, and later plated on Matrigel-coated coverslips. After 3 days in growth medium, cells were treated for 3 weeks with T3 containing maturation medium. Differentiation into myelin-producing OLs was assessed using O4 (OL surface marker on pre-OLs) and myelin basic protein (MBP) immunohistochemistry. In all conditions compounds or vehicle were added to culture during differentiation for either 5 days (mouse) or 18 days (human). […]
Tempo’s iOligo (OPC) cells form branched bipolar and tripolar structures when cultured as a monolayer and express OL markers, including O4, NG2, and CNPase. […] After plating human OPCs and allowing two days of growth in expansion media, the culture medium was switched to T3 + maturation medium and evaluated for MBP expression (Fig. 8i). […]

[3] = test system: EAE optic nerve gene transcripts; assay: NanoString nCounter Mouse Neuropathology gene expression, optic nerve RNA; assay type: in vivo
Method: RNA Extraction and NanoString nCounter Gene Expression Assay: RNA was isolated from a single optic nerve of normal, EAE+Vehicle, and EAE+K102 mice[28]. The RNA samples were analyzed using the nCounter Mouse Neuropathology panel (NanoString Technologies) (Supplementary Data Set 1). Fold changes were calculated using normalized data for the three groups (Supplementary Data Set 2).
Genes associated with myelination, inflammation, and axon health are altered in EAE optic nerves compared to normal optic nerves. To examine how K102 treatment affects these gene transcripts, RNA from treated optic nerves was analyzed using the NanoString Neuropathology gene expression panel (Fig. 7A, Supplementary Data Set 1). […] Ccr2 is a chemokine receptor involved in recruiting immune cells to sites of inflammation. Cpt1b (carnitine palmitoyltransferase 1B) is an enzyme critical for fatty acid oxidation.
RNA Extraction and NanoString nCounter Gene Expression Assay: RNA was isolated from a single optic nerve as described previously in(9). Optic nerves were isolated from normal, EAE+V, and EAE+K102 mice. RNA isolates were run on the nCounter Mouse Neuropathology panel (NanoString Technologies, Seattle, WA). Normalized data was used to calculate fold change for all three groups.
For nCounter gene expression analysis, normalized counts were used to calculate log2 fold changes. Welch’s t-test (unequal variance t-test) was applied when comparing NM vs. EAE+V and EAE+V vs. EAE+K102, as both sample sizes and variances differed between groups. Significance levels were set as follows: *p < 0.05, **p < 0.01, ***p < 0.001, and ****p < 0.0001. Summary of statistics for Figures is in a table format in the supplementary sections Supplementary TableS7-S12 […]

SMILES: Cc1cc(O)ccc1-n1nc2ccc(O)cc2c1Cl [Compound K102, IndCl-o-Me]
- AUCInf/D [1]: 0.6 kg·ng·h/mL/mg
- AUClast [1]: 24.6 ng·h/mL
- Cmax [1]: 31.7 ng/mL
- Tmax [1]: 15 min
- MBP levels vs vehicle control [2]: significantly increased
- Ccr2 and Cpt1b transcripts vs vehicle-treated optic nerves ([3]; 2 of 770 genes): significantly altered
- Arc and Pvalb transcripts vs vehicle ([3]; optic nerve, EAE): increased
- Sox10 and Olig2 transcripts relative to vehicle ([3]; optic nerve, EAE): increase
- complement system genes C1qa, C1qb, C1qc, and C3 ([3]; optic nerve, EAE): did not significantly impact
- mitochondrial-related genes Pink1, Tfam, Mfn2, Park7, and Sirt2 ([3]; vs untreated EAE optic nerves): significant increase
